From patent US12077483B2, “Modified amine lipids” (Intellia Therapeutics, Inc., priority 2018, dated 2024) come the findings set out here.

One assay has as its system mouse TTR gene. The experiment in a line: In vivo editing in mouse liver, LNP with Cas9 mRNA and sgRNA G502, NGS. The settings on record: G502, sgRNA:Cas9 mRNA 1:2 w/w, Example 119. As to the method: CD-1 female mice, ranging from 6-10 weeks of age were used in each study. Animals were weighed and grouped according to body weight for preparing dosing solutions based on group average weight. LNPs were dosed via the lateral tail vein in a volume of 0.2 mL per animal (approximately 10 mL per kilogram body weight). The animals were periodically observed for adverse effects for at least 24 hours post dose.
For studies measuring in vivo editing in liver, CD-1 female mice were dosed at 0.1 mpk unless otherwise noted. Animals were euthanized at 6 or 7 days by exsanguinationvia cardiac puncture under isoflourane anesthesia. Liver tissue was collected from each animal for DNA extraction and analysis. Blood was collected into serum separator tubes or into tubes containing buffered sodium citrate for plasma as described herein. Cohorts of mice were measured for editing by Next-Generation Sequencing (NGS).
(§1) In brief, to quantitatively determine the efficiency of editing at the target location in the genome, genomic DNA was isolated and deep sequencing was utilized to identify the presence of insertions and deletions introduced by gene editing.
PCR primers were designed around the target site (e.g., B2M), and the genomic area of interest was amplified. […] The reads were aligned to the relevant reference genome (e.g., GRCm38) after eliminating those having low quality scores. The resulting files containing the reads were mapped to the reference genome (BAM files), where reads that overlapped the target region of interest were selected and the number of wild type reads versus the number of reads which contain an insertion, substitution, or deletion was calculated.
(§2) The editing percentage (e.g., the “editing efficiency” or “percent editing”) is defined as the total number of sequence reads with insertions or deletions over the total number of sequence reads, including wild type.
We assessed in vivo editing efficiency for materials delivered with formulations with variable tail lengths through in vivo editing experiments. […]

Assay [1] has as its system rat TTR. The experiment in a line: Serum TTR levels in rats after LNP delivery. The format is in vivo. The settings on record: Table 11, G534, Sprague Dawley female rats i.v.
Assay [2] relates to rat TTR. The experiment in a line: In vivo editing in rat liver, LNP with Cas9 mRNA and sgRNA G534, NGS. To be noted: Table 11, Sprague Dawley female rats i.v., liver 6-7 days post dose. On the procedure: as §1
PCR primers were designed around the target site (e.g., B2M), and the genomic area of interest was amplified. Additional PCR was performed according to the manufacturer's protocols (Illumina) to add the necessary chemistry for sequencing. The amplicons were sequenced on an Illumina MiSeq instrument. The reads were aligned to the relevant reference genome (e.g., GRCm38) after eliminating those having low quality scores. The resulting files containing the reads were mapped to the reference genome (BAM files), where reads that overlapped the target region of interest were selected and the number of wild type reads versus the number of reads which contain an insertion, substitution, or deletion was calculated.
as §2
To assess lipid efficacy, dose response experiments were performed in vivo. Cas9 mRNA of Example 115 was formulated as LNPs with a gRNA targeting TTR (G00534; SEQ ID NO: 5). These LNPs were formulated, prepared and analyzed as described in Example 115 using a 1:2 w/w ratio of a sgRNA and Cas9 mRNA. Composition analysis for these LNPs are described in Table 10.
For efficacy, Sprague Dawley female rats were dosed i.v. at 0.1 mpk or 0.03 mpk. 6-7 days post dose, rats were euthanized by CO2 asphyxiation. Blood was collected into serum separator tubes. Liver biopsy processed for gDNA and assessed for editing by NGS methods described in Example 115. Results are shown in Table 11 and FIGS. 12A and 12B. For tolerability, Sprague Dawley female rats were dosed at 6 mpk and 24 hours post dose the animals were euthanized by CO2 asphyxiation. Blood was collected into serum separator tubes and sent to an external CRO for quantitation of liver enzymes via a liver enzyme panel.

On to `CCCCC/C=C\C/C=C\CCCCCCCC(=O)OCC(COC(=O)CCCCCCC/C=C\C/C=C\CCCCC)OC(=O)CCC(CCCCC)OC(=O)NCCN1CCCC1` (stereo not drawn) [Compound 72, 2-((4-(((2-(pyrrolidin-1l-yl)ethyl)carbamoyl)oxy)nonanoyl)oxy)propane-1,3-diyl (9Z,9′Z,12Z,12′Z)-bis(octadeca-9,12-dienoate)], for which, in the assay on mouse TTR gene, the “efficacy for in vivo editing (in words)” value is on record as “efficacious”.
On to `CCCCC/C=C\C/C=C\CCCCCCCC(=O)OCC(COC(=O)CCCCCCC/C=C\C/C=C\CCCCC)OC(=O)CCC(CCCCCCCC)OC(=O)NCCN1CCCC1` (stereo not drawn) [Compound 51, 2-((4-(((2-(pyrrolidin-1-yl)ethyl)carbamoyl)oxy)dodecanoyl)oxy)propane-1,3-diyl (9Z,9′Z,12Z,12′Z)-bis(octadeca-9,12-dienoate)], for which the “efficacy for in vivo editing (in words)” value in the assay with mouse TTR gene is on record as “efficacious”.
With `CCCCC/C=C\C/C=C\CCCCCCCC(=O)OCC(COC(=O)CCCCCCC/C=C\C/C=C\CCCCC)OC(=O)CCC(CCCCCC)OC(=O)NCCN1CCCC1` (racemic) [Compound 50, 2-((4-(((2-(pyrrolidin-1-yl)ethyl)carbamoyl)oxy)decanoyl)oxy)propane-1,3-diyl (9Z,9′Z,12Z,12′Z)-bis(octadeca-9,12-dienoate)], the “Serum TTR” value amounted to 581.7 µg/mL with rat TTR [1] (dose 0.03 mpk) and 116.6 µg/mL in the assay on rat TTR [1] (dose 0.1 mpk). In addition, the “Serum TTR % TSS” value with rat TTR [1] (dose 0.03 mpk) amounted to 69% TSS; in the assay on rat TTR [1] (dose 0.1 mpk), 14% TSS. Also, the “efficacy for in vivo editing (in words)” value in the assay with mouse TTR gene is on record as “efficacious”. Further, the “Editing % Editing” value with rat TTR [2] (dose 0.03 mpk) stood at 26.9%; in the assay with rat TTR [2] (dose 0.1 mpk), 62.6%.
